Test results from patent US20150368195A1, “INDOLINE COMPOUNDS FOR TREATMENT AND/OR PREVENTION OF INFLAMMATION DISEASES” (Taipei Medical University, priority 2014, published 2015).

Experiments:
[1] = target: T1, HDAC1 (Homo sapiens, UniProt Q13547); test: recombinant HDAC isoform inhibition (kit); type: biochemical; conditions: mean ± SEM, three replicates
T1 construct: purchased
From the text: (§1) Using kits that contained different recombinant HDAC isoforms, we evaluated the ability of MPT0G009 to inhibit HDAC-mediated deacetylation of lysine residues on the substrates that were provided.

[2] = target: T2, HDAC2 (Homo sapiens, UniProt Q92769); test: recombinant HDAC isoform inhibition (kit); type: biochemical; conditions: mean ± SEM, three replicates
T2 construct: purchased
From the text: as §1

[3] = target: T3, HDAC3 (Homo sapiens, UniProt O15379); test: recombinant HDAC isoform inhibition (kit); type: biochemical; conditions: mean ± SEM, three replicates
T3 construct: purchased
From the text: as §1

[4] = target: T4, HDAC6 (Homo sapiens, UniProt Q9UBN7); test: recombinant HDAC isoform inhibition (kit); type: biochemical; conditions: mean ± SEM, three replicates
T4 construct: purchased
From the text: as §1

[5] = target: T5, HDAC8 (Homo sapiens, UniProt Q9BY41); test: recombinant HDAC isoform inhibition (kit); type: biochemical; conditions: mean ± SEM, three replicates, read-out: IC50 DHAC8
T5 construct: purchased
From the text: as §1

[6] = system: prostaglandin E2 (PGE2); test: LPS-induced PGE2 production in RAW 264.7 macrophages; type: cell-based, Mouse
Protocol: Furthermore, the anti-inflammatory effects of MPT0G009 was evaluated. […] These supernatants were then assayed for PGE2, NO, and IL-6.

[7] = system: HIG-82 synoviocytes; test: SRB anti-proliferation assay; type: cell-based; conditions: 24 or 48 h incubation
From the text: (§2) (FIG. 1A) Structure of MPT0G009. […] Results in (FIGS. 1B-E) and (FIG. 1G) are means±SEM's for three independent experiments, *p<0.05 and **p<0.01 compared with no added inhibitor.

[8] = system: RA-FLS; test: SRB anti-proliferation assay; type: cell-based; conditions: 24 or 48 h incubation
From the text: as §2

[9] = system: RA-FLS; test: cell cycle distribution by flow cytometry (propidium iodide); type: cell-based; conditions: 24 h
From the text: as §2

[10] = system: inducible nitric oxide synthase (iNOS); test: LPS-induced iNOS protein expression, Western blot, RAW264.7; type: cell-based, Mouse; conditions: RAW264.7, 0.1-10 μM, LPS 25 ng/mL 24 h
Protocol: Then the cells were harvested and whole cell extracts were prepared for Western blot analysis for iNOS and COX-2. The relative protein expressions are presented as mean±SEM for four replicates. *p<0.05 compared to the LPS-treated group.

[11] = system: histone H3 (Acetyl-H3); test: histone H3 acetylation, Western blot, HIG-82 synoviocytes; type: cell-based; conditions: 3 μM MPT0G009 or 60 μM SAHA; 6, 12, 24 h; starting at 6 h
[12] = system: histone H3 (Acetyl-H3); test: histone H3 acetylation, Western blot, RA-FLS; type: cell-based; conditions: 1 μM MPT0G009 or 30 μM SAHA; 6, 12, 24 h; starting at 12 h
Protocol: (§3) Then cells were harvested and cell lysates were prepared for Western blot analysis of the indicated proteins. (FIG. 5C) RA-FLS were incubated for 1 h with or without the proteasome inhibitor, MG132 (1 μM). […] Results shown are representative of three independent experiments.
This was a proteasome-dependent effect because it was reduced by pretreatment with the proteasome inhibitor, MG132 (1 μM; FIG. 5c).

[13] = system: HDAC3; test: HDAC isoform protein levels, Western blot, RA-FLS; type: cell-based; conditions: 12 or 24 h; 1 μM MPT0G009 or 30 μM SAHA
Protocol: as §3

[14] = in vivo rat pharmacokinetic profiling; parameters: species or system rats
From the text: The pharmokinetic parameters of MPT0G009 in rats after single-dose intravenous (i.v.) and oral administration are summarized in Table 2. […].

[15] = maximum tolerated dose (MTD); type: in vivo; conditions: for Lethality / Change of body weight Day 7 / Change of body weight Day 14 / Change of body weight Day 21: qd × 7; for Change of body weight Day 7 / Change of body weight Day 14 / Change of body weight Day 21: mean ± SEM
[16] = system: tumor necrosis factor-α (TNF-α); test: LPS-induced TNF-α production in RAW 264.7 macrophages; conditions: Mus musculus, RAW264.7, read-out: IC50 TNF-α
[17] = system: HDAC1 and HDAC6; test: overexpression of HDAC1 and HDAC6 in RAW264.7 macrophages or RA-FLS
Protocol: Cells were then tartrate resistant acid phosphatase
(TRAP) stained, and the numbers of TRAP-positive multinuclear cells were counted (FIG. 7D) or were incubated with a fluorescein isothiocyanate (FITC)-conjugated anti-CD51/61 antibody and analyzed by flow cytometry (FIG. 7E).

T2 sequence (Q92769 whole entry, species assumed, canonical isoform): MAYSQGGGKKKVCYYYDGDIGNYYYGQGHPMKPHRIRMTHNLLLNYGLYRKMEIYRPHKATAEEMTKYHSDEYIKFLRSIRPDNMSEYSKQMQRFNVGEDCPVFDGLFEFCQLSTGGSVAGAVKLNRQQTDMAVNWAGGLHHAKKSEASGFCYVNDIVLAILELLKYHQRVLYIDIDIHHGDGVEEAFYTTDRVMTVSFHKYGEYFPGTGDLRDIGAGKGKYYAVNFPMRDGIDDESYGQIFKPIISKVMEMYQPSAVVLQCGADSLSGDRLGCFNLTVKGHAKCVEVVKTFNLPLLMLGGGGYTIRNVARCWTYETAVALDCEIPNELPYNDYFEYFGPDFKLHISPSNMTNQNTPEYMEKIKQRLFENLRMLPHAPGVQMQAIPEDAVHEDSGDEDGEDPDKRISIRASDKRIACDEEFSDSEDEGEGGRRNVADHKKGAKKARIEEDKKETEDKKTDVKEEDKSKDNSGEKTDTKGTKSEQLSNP
T5 sequence (Q9BY41 whole entry, canonical isoform): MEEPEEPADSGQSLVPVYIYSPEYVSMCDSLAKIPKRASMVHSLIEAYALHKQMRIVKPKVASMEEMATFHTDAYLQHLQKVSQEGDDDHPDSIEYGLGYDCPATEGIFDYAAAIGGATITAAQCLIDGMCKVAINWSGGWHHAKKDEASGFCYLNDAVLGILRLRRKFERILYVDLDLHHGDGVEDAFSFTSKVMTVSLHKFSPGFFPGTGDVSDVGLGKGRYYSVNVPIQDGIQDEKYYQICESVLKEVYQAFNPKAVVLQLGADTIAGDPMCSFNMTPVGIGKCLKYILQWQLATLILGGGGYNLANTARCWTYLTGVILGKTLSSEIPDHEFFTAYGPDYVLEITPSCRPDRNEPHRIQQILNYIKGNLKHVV
T3 sequence (O15379 whole entry, species assumed, canonical isoform): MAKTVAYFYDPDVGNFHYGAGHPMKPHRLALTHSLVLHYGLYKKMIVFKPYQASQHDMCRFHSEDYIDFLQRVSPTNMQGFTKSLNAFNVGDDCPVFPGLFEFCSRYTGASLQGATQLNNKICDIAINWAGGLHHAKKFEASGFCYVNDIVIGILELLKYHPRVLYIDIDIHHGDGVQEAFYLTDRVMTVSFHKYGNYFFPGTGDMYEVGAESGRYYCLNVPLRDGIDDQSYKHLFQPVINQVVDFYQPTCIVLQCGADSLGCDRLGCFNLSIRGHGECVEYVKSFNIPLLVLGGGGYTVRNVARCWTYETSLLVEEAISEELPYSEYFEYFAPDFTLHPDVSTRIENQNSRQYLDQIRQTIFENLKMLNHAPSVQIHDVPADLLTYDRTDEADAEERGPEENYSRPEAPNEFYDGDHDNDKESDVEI
T3 sequence (Q9Y618 395-489 partner limits assumed, species assumed): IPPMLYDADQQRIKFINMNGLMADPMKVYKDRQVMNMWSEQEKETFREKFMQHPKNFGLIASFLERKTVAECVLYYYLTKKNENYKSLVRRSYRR
T4 sequence (Q9UBN7 whole entry, species assumed, canonical isoform): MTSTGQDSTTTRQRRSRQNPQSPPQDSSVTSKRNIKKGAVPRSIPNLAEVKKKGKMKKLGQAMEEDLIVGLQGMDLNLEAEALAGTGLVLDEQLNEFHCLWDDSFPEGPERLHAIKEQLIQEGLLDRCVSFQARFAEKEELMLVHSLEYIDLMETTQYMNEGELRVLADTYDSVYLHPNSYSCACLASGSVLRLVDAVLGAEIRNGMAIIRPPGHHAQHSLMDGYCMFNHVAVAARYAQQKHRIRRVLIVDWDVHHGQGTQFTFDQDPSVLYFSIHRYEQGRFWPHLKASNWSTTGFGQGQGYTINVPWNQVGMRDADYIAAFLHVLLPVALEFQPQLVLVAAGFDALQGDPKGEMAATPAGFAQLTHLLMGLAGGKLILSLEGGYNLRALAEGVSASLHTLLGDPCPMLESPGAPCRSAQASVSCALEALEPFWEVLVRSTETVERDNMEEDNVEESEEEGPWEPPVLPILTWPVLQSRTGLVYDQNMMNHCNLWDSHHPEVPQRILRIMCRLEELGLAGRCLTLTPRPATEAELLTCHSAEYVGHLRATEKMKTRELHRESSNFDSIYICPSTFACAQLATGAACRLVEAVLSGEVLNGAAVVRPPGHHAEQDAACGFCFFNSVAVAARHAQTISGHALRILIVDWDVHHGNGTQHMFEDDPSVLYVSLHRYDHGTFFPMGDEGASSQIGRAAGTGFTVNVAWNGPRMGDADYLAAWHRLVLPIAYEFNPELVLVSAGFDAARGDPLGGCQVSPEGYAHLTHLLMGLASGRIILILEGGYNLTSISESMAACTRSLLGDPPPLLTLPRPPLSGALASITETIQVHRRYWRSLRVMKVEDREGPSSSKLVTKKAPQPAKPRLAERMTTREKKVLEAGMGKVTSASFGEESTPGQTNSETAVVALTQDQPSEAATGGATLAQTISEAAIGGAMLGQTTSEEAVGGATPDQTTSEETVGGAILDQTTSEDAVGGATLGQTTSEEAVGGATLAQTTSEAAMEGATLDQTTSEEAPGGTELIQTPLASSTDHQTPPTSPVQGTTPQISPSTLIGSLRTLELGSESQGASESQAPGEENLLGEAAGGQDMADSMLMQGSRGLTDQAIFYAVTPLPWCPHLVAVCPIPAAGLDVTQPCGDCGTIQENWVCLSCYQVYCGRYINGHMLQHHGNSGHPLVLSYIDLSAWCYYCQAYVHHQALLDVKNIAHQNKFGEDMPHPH
T1 sequence (Q13547 whole entry, species assumed, canonical isoform): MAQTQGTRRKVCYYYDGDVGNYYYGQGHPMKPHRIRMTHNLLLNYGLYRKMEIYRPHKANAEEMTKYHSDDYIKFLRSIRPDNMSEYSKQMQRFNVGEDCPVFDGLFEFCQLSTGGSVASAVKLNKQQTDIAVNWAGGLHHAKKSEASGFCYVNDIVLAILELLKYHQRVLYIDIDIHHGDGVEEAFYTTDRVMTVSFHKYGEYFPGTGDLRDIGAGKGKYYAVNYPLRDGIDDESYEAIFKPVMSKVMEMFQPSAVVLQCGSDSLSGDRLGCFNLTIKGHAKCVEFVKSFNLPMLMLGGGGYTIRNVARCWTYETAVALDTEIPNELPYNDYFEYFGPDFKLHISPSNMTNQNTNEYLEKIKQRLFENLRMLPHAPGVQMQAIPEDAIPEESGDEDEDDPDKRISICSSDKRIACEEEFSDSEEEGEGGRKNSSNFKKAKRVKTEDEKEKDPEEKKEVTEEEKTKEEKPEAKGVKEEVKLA

Question: Which IC50 [1] does the source give for COc1ccc(S(=O)(=O)N2CCc3cc(C=CC(=O)NO)ccc32)cc1 [Compound 9, 3-[1-(4-methoxybenzenesulfonyl)-2,3-dihydro-1H-indol-5-yl]-N-Hydroxyacrylamide] here?
Answer: Its IC50 is 4.62 ± 0.81 nM.

Question: And the IC50 [2]?
Answer: Its IC50 is 5.16 ± 0.76 nM.

Question: What about the IC50 [3] of the same molecule?
Answer: Its IC50 is 1.91 nM.

Question: What about the IC50 [4] of the same molecule?
Answer: The IC50 was 8.43 ± 0.72 nM.

Question: What about the IC50 [5] of the same molecule?
Answer: Its IC50 is 22.5 nM.

Question: And the “PGE2 production by RAW264.7 cells” value ([6]; MPT0G009 0.1, 1, 10 μM, SAHA 0.3, 3, 30 μM, LPS 25 ng/mL 24 h)?
Answer: Its value is “inhibited”.

Question: What about the IC50 ([6]; Mus musculus, RAW264.7, LPS-stimulated RAW 264.7 macrophages, mean ± SEM, three experiments) of the same molecule?
Answer: Its IC50 is 520 nM.

Question: And the “proliferation of HIG-82 synoviocytes” value [7]?
Answer: The value was “concentration-dependent anti-proliferative effects”.

Question: And the “proliferation of RA-FLS” value [8]?
Answer: The value was “concentration-dependent anti-proliferative effects”.

Question: And the “subG1 peak (cellular apoptosis)” value ([9]; MPT0G009 1-1000 nM, SAHA 3-3000 nM)?
Answer: Its value is “did not increase the subG1 peak”.

Question: What about the G0/G1 phase arrest ([9]; all concentrations of both agents) of the same molecule?
Answer: The G0/G1 phase arrest was “G0/G1 phase arrest was observed”.

Question: What about the iNOS protein expression [10] of the same molecule?
Answer: The iNOS protein expression was “concentration-dependently inhibitory effects”.

Question: And the iNOS protein expression ([10]; listed as compound 9)?
Answer: The iNOS protein expression was “significantly inhibited”.

Question: And the “acetylation of histone H3 in HIG-82 synoviocytes” value [11]?
Answer: Its value is “significant hyperacetylation of histone H3”.

Question: And the “acetylation of histone H3 in RA-FLS” value [12]?
Answer: Its value is “significant hyperacetylation of histone H3”.

Question: And the “levels of HDAC3 in RA-FLS” value [13]?
Answer: The value was “decreased levels of HDAC3”.

Question: And the T1/2 ([14]; rat, in vivo, iv, 2 mg/kg)?
Answer: Its T1/2 is 6.74 h.

Question: And the Vd ([14]; rat, in vivo, iv, 2 mg/kg)?
Answer: The Vd was 25.21 L/kg.

Question: And the T1/2 ([14]; rat, in vivo, po, 20 mg/kg)?
Answer: Its T1/2 is 9.53 h.

Question: What about the F ([14]; rats, po 20 mg/kg, MPT0G009) of the same molecule?
Answer: Its F is 13.0%.

Question: What about the Lethality ([15]; 250 mg/kg po) of the same molecule?
Answer: Its Lethality is 0%.

Question: And the “Change of body weight Day 7” value ([15]; 250 mg/kg po)?
Answer: Its value is “+8.7 ± 0.5%”.

Question: What about the “Change of body weight Day 14” value ([15]; 250 mg/kg po) of the same molecule?
Answer: The value was “+17.0 ± 0.4%”.

Question: What about the “Change of body weight Day 21” value ([15]; 250 mg/kg po) of the same molecule?
Answer: The value was “+22.6 ± 0.6%”.

Question: And the Lethality ([15]; 500 mg/kg po)?
Answer: Its Lethality is 0%.

Question: And the “Change of body weight Day 7” value ([15]; 500 mg/kg po)?
Answer: The value was “+1.6 ± 0.3%”.

Question: And the “Change of body weight Day 14” value ([15]; 500 mg/kg po)?
Answer: Its value is “+16.5 ± 0.6%”.

Question: And the “Change of body weight Day 21” value ([15]; 500 mg/kg po)?
Answer: Its value is “+24.0 ± 0.9%”.

Question: What about the Lethality ([15]; 1000 mg/kg po) of the same molecule?
Answer: Its Lethality is 0%.

Question: And the “Change of body weight Day 7” value ([15]; 1000 mg/kg po)?
Answer: Its value is “+4.4 ± 0.6%”.

Question: And the “Change of body weight Day 14” value ([15]; 1000 mg/kg po)?
Answer: The value was “+12.0 ± 0.7%”.

Question: What about the “Change of body weight Day 21” value ([15]; 1000 mg/kg po) of the same molecule?
Answer: The value was “+15.3 ± 0.8%”.

Question: And the adverse effects ([15]; mice, dosage of up to 1000 mg/kg/day, within three weeks)?
Answer: Its adverse effects is “No significant adverse effects”.

Question: And the IC50 [16]?
Answer: The IC50 was 520 nM.

Question: And the “effect of HDAC overexpression on inhibition of M-CSF/RANKL-induced osteoclast differentiation and CD51/61 expression” value ([17]; 5 nM MPT0G009, transfected RAW264.7)?
Answer: Its value is “significantly reduced”.

Question: What about the “effect of HDAC overexpression on inhibition of LPS-mediated NO or PGE2 release” value ([17]; 10 μM MPT0G009 or 30 μM SAHA, HDAC1- and HDAC6-coexpressing RAW264.7 or RA-FLS) of the same molecule?
Answer: Its value is “significantly reduced the inhibitory effects”.
